The values that follow come from patent US10131653B2, “Heterocyclic compound” (TAKEDA PHARMACEUTICAL COMPANY LIMITED, priority 2015, dated 2018).

Read-outs that look alike come from different tables or passages of the source.

In one assay the target is T1, human OX1 receptor (Homo sapiens, UniProt O43613).
T1 construct: expressed in transfected cells; host or cells: CHO cells
T1 sequence (O43613 1-425): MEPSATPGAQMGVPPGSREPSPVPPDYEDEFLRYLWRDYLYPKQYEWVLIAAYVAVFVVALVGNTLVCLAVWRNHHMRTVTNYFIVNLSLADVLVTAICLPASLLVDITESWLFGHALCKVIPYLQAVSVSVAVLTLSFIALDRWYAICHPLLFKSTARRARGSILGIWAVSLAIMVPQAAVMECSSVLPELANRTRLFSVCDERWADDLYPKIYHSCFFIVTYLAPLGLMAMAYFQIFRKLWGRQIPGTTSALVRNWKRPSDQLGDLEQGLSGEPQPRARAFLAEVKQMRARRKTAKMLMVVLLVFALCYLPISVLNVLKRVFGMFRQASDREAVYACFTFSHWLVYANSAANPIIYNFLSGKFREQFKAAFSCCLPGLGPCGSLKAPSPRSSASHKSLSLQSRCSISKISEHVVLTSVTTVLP
Nature of the assay: Measurement of orexin receptor antagonistic activity (calcium fluorescence, FLIPRtetra). The settings on record: for inhibition at 10 µM: CHO, read-out: Human Orexin1 receptor inhibition (at 10 μM). Type of assay: cell-based. The gist of the method:
(§1)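 Calcium fluorescence measured by FLIPRtetra every second for 2 min after orexin-A challenge, 1 nM final for OX1 and 0.3 nM final for OX2. Receptor-expressing CHO cells received compound in HEPES-buffered HBSS with 0.1% BSA just before agonist.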

In the next assay the target is T2, human OX2 receptor (Homo sapiens, UniProt O43614).
T2 construct: expressed in transfected cells; host or cells: CHO cells
T2 sequence (O43614 1-444): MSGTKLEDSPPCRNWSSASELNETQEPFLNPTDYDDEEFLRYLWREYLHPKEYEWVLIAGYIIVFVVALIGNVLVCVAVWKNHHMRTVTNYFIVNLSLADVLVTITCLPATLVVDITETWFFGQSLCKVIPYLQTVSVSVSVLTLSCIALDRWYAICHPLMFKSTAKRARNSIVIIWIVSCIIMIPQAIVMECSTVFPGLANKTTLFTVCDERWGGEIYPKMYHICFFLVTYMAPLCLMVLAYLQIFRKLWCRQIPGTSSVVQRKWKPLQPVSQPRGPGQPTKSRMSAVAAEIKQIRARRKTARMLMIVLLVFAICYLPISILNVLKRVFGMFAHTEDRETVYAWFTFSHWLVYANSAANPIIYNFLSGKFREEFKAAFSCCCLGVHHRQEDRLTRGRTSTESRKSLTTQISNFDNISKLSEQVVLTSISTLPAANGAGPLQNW
Described as above. Type of assay: cell-based. The following applies: for inhibition at 10 µM: CHO, read-out: Human Orexin2 receptor inhibition (at 10 μM). The gist of the method: as §1

Setting [1] is: 10 μM test compound, CHO cells expressing human OX1 receptor, OX-A 1 nM.
Where [2] appears, read: 10 μM test compound, CHO cells expressing human OX2 receptor, OX-A 0.3 nM.

Broadly, the inhibition is the drop in the measured response relative to a control, in per cent.

Turning to `CCOC(=O)c1cc(N2CCN(C(=O)c3cc(Cl)ccc3-n3nccn3)C[C@H](C)O2)nc(C)n1` [Example 208, ethyl 6-((7S)-5-(5-chloro-2-(2H-1,2,3-triazol-2-yl)benzoyl)-7-methyl-1,2,5-oxadiazepan-2-yl)-2-methylpyrimidine-4-carboxylate], the inhibition at 10 µM on human OX1 receptor (setting [1]) worked out at 8%; at human OX2 receptor (setting [2]), 14%.

For the molecule `C[C@H]1CN(C(=O)c2ccccc2-n2nccn2)CCN(c2ccn3nccc3n2)O1` [Example 99, ((7S)-7-methyl-2-(pyrazolo[1,5-a]pyrimidin-5-yl)-1,2,5-oxadiazepan-5-yl)(2-(2H-1,2,3-triazol-2-yl)phenyl)methanone], the inhibition at 10 µM on human OX1 receptor (setting [1]) is 87%; at human OX2 receptor (setting [2]), 98%.

On to `Cc1ccc(-n2nccn2)c(C(=O)N2CCN(c3cc(C)nc(C)c3)OC[C@H]2C)c1` [Example 143, ((6R)-2-(2,6-dimethylpyridin-4-yl)-6-methyl-1,2,5-oxadiazepan-5-yl) (5-methyl-2-(2H-1,2,3-triazol-2-yl)phenyl)methanone], for which the inhibition at 10 µM was 1% at human OX1 receptor and 44% at human OX2 receptor.

As to `COC(=O)c1cc(N2CCN(C(=O)c3cc(Cl)ccc3-n3nccn3)C[C@H](C)O2)nc(C)n1` [Example 207, methyl 6-((7S)-5-(5-chloro-2-(2H-1,2,3-triazol-2-yl)benzoyl)-7-methyl-1,2,5-oxadiazepan-2-yl)-2-methylpyrimidine-4-carboxylate], the inhibition at 10 µM at human OX1 receptor (setting [1]) was found to be 25%; on human OX2 receptor (setting [2]) it was 81%.

On to `C[C@@H]1CON(c2ncnc3ccn(C)c23)CCN1C(=O)c1cc(F)ccc1-n1nccn1` [Example 165, (5-fluoro-2-(2H-1,2,3-triazol-2-yl)phenyl)((6R)-6-methyl-2-(5-methyl-5H-pyrrolo[3,2-d]pyrimidin-4-yl)-1,2,5-oxadiazepan-5-yl)methanone], for which the inhibition at 10 µM on human OX1 receptor (setting [1]) and on human OX2 receptor (setting [2]) was 24% each time.

Take `COc1cc(N2CCN(C(=O)c3ccccc3-n3nccn3)[C@H](C)CO2)nc(C)n1` [Example 160, ((6R)-2-(6-methoxy-2-methylpyrimidin-4-yl)-6-methyl-1,2,5-oxadiazepan-5-yl)(2-(2H-1,2,3-triazol-2-yl)phenyl)methanone]: the inhibition at 10 µM at human OX1 receptor (setting [1]) was determined as 82%; at human OX2 receptor (setting [2]), 101%.

With `Cc1nc(N2CCN(C(=O)c3ccccc3-c3nccs3)C[C@H](C)O2)cc(C(F)(F)F)n1` [Example 85, ((7S)-7-methyl-2-(2-methyl-6-(trifluoromethyl)pyrimidin-4-yl)-1,2,5-oxadiazepan-5-yl)(2-(1,3-thiazol-2-yl)phenyl)methanone], the results for the inhibition at 10 µM at human OX1 receptor (setting [1]) and on human OX2 receptor (setting [2]) were 98% and 102%, respectively.

Consider `Cc1cc(N2CCN(C(=O)c3cc(Cl)ccc3C3CCC3)CCO2)nc(C)n1` [Example 22, (5-chloro-2-cyclobutylphenyl) (2-(2,6-dimethylpyrimidin-4-yl)-1,2,5-oxadiazepan-5-yl)methanone], for which the results for the inhibition at 10 µM on human OX1 receptor (setting [1]) and at human OX2 receptor (setting [2]) were 54% and 99%, respectively.

Regarding `Cc1cc(N2CCN(C(=O)c3cc(C4CCC4)ccc3-n3nccn3)CCO2)nc(C)n1` [Example 41, (5-cyclobutyl-2-(2H-1,2,3-triazol-2-yl)phenyl)(2-(2,6-dimethylpyrimidin-4-yl)-1,2,5-oxadiazepan-5-yl)methanone], the figures for the inhibition at 10 µM at human OX1 receptor (setting [1]) and on human OX2 receptor (setting [2]) were 10% and 56%, respectively.

For the molecule `Cc1ccc(-n2nccn2)c(C(=O)N2CCN(c3ccc(F)cn3)OC[C@H]2C)c1` [Example 119, ((6R)-2-(5-fluoropyridin-2-yl)-6-methyl-1,2,5-oxadiazepan-5-yl)(5-methyl-2-(2H-1,2,3-triazol-2-yl)phenyl)methanone], the inhibition at 10 µM worked out at 48% at human OX1 receptor (setting [1]) and 92% at human OX2 receptor (setting [2]).

On to `Cc1cc(C)nc(N2CCN(C(=O)c3cccc4nc(C)oc34)CCO2)n1` [Example 70, (2-(4,6-dimethylpyrimidin-2-yl)-1,2,5-oxadiazepan-5-yl) (2-methyl-1,3-benzoxazol-7-yl)methanone], for which the inhibition at 10 µM on human OX1 receptor is -6%; on human OX2 receptor, 17%.

Take `Cc1cc(C)nc(N2CCN(C(=O)c3cc(Cl)cc(Cl)c3)CCO2)n1` [Example 56, (3,5-dichlorophenyl) (2-(4,6-dimethylpyrimidin-2-yl)-1,2,5-oxadiazepan-5-yl)methanone]: the inhibition at 10 µM on human OX1 receptor (setting [1]) worked out at 21%; on human OX2 receptor (setting [2]), 96%.

Take `COc1cccc(OC)c1C(=O)N1CCON(c2nc(C)cc(C)n2)CC1` [Example 47, (2,6-dimethoxyphenyl) (2-(4,6-dimethylpyrimidin-2-yl)-1,2,5-oxadiazepan-5-yl)methanone]: the inhibition at 10 µM on human OX1 receptor (setting [1]) was determined as 23%; at human OX2 receptor (setting [2]), 97%.

`COc1ccc(Cl)c(C(=O)N2CCON(c3nc(C)cc(C)n3)CC2)c1` [Example 52, (2-chloro-5-methoxyphenyl) (2-(4,6-dimethylpyrimidin-2-yl)-1,2,5-oxadiazepan-5-yl)methanone]: the inhibition at 10 µM at human OX1 receptor (setting [1]) amounted to 16%; on human OX2 receptor (setting [2]), 96%.

Take `Cc1cc(N2CCN(C(=O)c3ccccc3-c3noc(C)n3)C[C@H](C)O2)nc(C)n1` [Example 232, ((7S)-2-(2,6-dimethylpyrimidin-4-yl)-7-methyl-1,2,5-oxadiazepan-5-yl)(2-(5-methyl-1,2,4-oxadiazol-3-yl)phenyl)methanone]: the inhibition at 10 µM at human OX1 receptor (setting [1]) was determined as 55%; on human OX2 receptor (setting [2]), 102%.

Regarding `Cc1ccc(C#N)c(N2CCN(C(=O)c3ccccc3-n3nccn3)[C@H](C)CO2)n1` [Example 156, 6-methyl-2-((6R)-6-methyl-5-(2-(2H-1,2,3-triazol-2-yl)benzoyl)-1,2,5-oxadiazepan-2-yl)nicotinonitrile], the inhibition at 10 µM on human OX1 receptor (setting [1]) worked out at 18%; on human OX2 receptor (setting [2]), 19%.

On to `Cc1ccc(-n2nccn2)c(C(=O)N2[C@H](C)CON(c3cc(C(F)(F)F)nc(C)n3)C[C@@H]2C)c1` [Example 178, ((4S,6R)-4,6-dimethyl-2-(2-methyl-6-(trifluoromethyl)pyrimidin-4-yl)-1,2,5-oxadiazepan-5-yl) (5-methyl-2-(2H-1,2,3-triazol-2-yl)phenyl)methanone], for which the inhibition at 10 µM at human OX1 receptor (setting [1]) was 105%; on human OX2 receptor (setting [2]) it was 99%.

On to `Cc1cc(N2CC(C)N(C(=O)c3ccccc3-n3nccn3)CCO2)nc(C)n1` (stereo not shown) [Example 187, (2-(2,6-dimethylpyrimidin-4-yl)-4-methyl-1,2,5-oxadiazepan-5-yl)(2-(2H-1,2,3-triazol-2-yl)phenyl)methanone], for which the results for the inhibition at 10 µM on human OX1 receptor (setting [1]) and on human OX2 receptor (setting [2]) were 100% and 103%, respectively.

Take `Cc1cc(C)nc(N2CCN(C(=O)c3cc(C)ccc3-n3nccn3)CCO2)c1` [Example 34, (2-(4,6-dimethylpyridin-2-yl)-1,2,5-oxadiazepan-5-yl)(5-methyl-2-(2H-1,2,3-triazol-2-yl)phenyl)methanone]: the values for the inhibition at 10 µM at human OX1 receptor (setting [1]) and at human OX2 receptor (setting [2]) were 97% and 99%, respectively.

In the case of `Cc1cc(N2CCN(C(=O)c3cc(Cl)ccc3-n3nccn3)CC(C)O2)nc(C)n1` (stereo in doubt) [Example 212, (5-chloro-2-(2H-1,2,3-triazol-2-yl)phenyl)((7R)-2-(2,6-dimethylpyrimidin-4-yl)-7-methyl-1,2,5-oxadiazepan-5-yl)methanone], the “Human Orexin1 receptor inhibition (at 10 μM)” value on human OX1 receptor (setting [1]) is 16%. Further, the “Human Orexin2 receptor inhibition (at 10 μM)” value at human OX2 receptor (setting [2]) is reported as 99%.
